Ratio Ki and Ki data for 17 molecules are collected here from ChEMBL document CHEMBL1142908, “Selective L-nitroargininylaminopyrrolidine and L-nitroargininylaminopiperidine neuronal nitric oxide synthase inhibitors” (Bioorg Med Chem, 2007).

Residues, ends and D or L forms follow the SMILES beside them.

Assay [1] is described as follows: Selectivity of rat recombinant nNOS over mouse recombinant iNOS.
A short description of assay [2]: Selectivity of rat recombinant nNOS over bovine recombinant eNOS.
Assay [3] has as its target T1, Nitric oxide synthase 3 (Bos taurus, UniProt P29473).
T1 sequence (P29473 whole entry): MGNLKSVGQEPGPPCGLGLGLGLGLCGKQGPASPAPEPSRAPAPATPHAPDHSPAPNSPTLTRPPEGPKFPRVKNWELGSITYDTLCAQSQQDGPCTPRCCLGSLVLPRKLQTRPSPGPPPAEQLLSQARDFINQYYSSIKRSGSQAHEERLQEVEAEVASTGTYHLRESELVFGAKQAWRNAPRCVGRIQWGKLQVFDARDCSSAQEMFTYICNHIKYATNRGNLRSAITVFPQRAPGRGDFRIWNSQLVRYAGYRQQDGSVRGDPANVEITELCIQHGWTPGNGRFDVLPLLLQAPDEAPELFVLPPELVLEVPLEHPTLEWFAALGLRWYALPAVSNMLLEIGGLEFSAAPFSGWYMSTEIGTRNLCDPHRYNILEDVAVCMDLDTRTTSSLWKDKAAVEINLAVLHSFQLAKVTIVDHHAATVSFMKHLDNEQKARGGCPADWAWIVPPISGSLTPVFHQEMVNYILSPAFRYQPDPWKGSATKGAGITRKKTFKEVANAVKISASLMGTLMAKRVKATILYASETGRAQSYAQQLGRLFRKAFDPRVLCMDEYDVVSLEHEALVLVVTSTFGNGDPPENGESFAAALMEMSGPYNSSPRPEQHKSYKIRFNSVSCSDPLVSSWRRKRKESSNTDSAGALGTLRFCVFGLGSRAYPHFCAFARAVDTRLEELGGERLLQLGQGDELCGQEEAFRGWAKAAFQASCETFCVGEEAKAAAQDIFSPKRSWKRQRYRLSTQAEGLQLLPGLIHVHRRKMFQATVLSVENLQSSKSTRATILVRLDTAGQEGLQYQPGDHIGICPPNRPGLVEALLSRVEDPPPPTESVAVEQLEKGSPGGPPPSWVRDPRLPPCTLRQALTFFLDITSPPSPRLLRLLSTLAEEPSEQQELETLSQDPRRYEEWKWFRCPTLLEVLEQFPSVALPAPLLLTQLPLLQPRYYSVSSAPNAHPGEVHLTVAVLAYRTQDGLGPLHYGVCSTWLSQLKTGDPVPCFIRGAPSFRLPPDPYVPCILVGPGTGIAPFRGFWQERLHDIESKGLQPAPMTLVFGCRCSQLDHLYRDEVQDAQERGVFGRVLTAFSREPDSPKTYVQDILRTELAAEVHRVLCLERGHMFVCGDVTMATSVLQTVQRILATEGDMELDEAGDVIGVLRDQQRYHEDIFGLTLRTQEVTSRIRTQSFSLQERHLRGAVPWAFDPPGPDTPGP
As to the kind of experiment: Inhibition of bovine recombinant eNOS expressed in Escherichia coli assessed as nitric oxide production by hemoglobin capture assay.

The target in assay [4] is Nitric oxide synthase 1 (Rattus norvegicus, UniProt P29476). As to the kind of experiment: Inhibition of rat recombinant nNOS expressed in Escherichia coli assessed as nitric oxide production by hemoglobin capture assay.
Nitric oxide synthase 1, sequence (P29476 whole entry): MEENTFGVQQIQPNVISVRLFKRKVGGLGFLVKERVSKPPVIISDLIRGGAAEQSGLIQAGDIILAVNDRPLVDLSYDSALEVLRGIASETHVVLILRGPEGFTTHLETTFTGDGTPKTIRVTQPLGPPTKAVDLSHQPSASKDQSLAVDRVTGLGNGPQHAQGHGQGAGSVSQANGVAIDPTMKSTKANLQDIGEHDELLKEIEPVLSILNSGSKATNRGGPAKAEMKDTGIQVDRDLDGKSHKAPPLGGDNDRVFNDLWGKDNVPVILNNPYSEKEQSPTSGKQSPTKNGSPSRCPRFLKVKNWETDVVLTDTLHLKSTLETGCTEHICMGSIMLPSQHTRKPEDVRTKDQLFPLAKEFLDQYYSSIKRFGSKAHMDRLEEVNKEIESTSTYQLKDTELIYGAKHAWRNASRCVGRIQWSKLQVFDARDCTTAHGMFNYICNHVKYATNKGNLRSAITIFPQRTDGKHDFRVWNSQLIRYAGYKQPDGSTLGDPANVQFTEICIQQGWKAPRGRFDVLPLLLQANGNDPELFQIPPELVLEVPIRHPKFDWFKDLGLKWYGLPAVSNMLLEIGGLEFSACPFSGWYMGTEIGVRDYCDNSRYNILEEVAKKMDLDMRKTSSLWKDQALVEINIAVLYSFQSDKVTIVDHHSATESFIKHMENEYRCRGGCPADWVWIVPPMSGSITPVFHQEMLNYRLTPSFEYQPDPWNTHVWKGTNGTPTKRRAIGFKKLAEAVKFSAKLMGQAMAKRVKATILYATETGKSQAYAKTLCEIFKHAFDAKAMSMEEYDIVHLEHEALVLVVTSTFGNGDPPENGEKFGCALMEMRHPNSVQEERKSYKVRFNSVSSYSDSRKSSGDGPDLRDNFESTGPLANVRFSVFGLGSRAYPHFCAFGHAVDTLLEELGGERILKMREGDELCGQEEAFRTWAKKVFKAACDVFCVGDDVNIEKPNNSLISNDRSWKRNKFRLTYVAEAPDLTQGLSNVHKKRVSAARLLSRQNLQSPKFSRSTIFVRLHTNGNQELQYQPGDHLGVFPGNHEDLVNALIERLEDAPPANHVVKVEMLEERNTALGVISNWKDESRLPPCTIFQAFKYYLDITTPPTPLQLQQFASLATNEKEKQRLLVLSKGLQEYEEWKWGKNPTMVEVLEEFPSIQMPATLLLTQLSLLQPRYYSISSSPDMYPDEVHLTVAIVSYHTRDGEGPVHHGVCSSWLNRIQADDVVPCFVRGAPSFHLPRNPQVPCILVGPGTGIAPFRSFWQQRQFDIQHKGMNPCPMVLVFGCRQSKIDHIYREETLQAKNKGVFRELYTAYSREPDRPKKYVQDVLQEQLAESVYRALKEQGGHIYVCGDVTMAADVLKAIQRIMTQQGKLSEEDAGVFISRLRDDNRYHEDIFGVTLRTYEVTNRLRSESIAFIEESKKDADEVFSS
The target of assay [5] is T2, Nitric oxide synthase, inducible (Mus musculus, UniProt P29477).
T2 sequence (P29477 whole entry): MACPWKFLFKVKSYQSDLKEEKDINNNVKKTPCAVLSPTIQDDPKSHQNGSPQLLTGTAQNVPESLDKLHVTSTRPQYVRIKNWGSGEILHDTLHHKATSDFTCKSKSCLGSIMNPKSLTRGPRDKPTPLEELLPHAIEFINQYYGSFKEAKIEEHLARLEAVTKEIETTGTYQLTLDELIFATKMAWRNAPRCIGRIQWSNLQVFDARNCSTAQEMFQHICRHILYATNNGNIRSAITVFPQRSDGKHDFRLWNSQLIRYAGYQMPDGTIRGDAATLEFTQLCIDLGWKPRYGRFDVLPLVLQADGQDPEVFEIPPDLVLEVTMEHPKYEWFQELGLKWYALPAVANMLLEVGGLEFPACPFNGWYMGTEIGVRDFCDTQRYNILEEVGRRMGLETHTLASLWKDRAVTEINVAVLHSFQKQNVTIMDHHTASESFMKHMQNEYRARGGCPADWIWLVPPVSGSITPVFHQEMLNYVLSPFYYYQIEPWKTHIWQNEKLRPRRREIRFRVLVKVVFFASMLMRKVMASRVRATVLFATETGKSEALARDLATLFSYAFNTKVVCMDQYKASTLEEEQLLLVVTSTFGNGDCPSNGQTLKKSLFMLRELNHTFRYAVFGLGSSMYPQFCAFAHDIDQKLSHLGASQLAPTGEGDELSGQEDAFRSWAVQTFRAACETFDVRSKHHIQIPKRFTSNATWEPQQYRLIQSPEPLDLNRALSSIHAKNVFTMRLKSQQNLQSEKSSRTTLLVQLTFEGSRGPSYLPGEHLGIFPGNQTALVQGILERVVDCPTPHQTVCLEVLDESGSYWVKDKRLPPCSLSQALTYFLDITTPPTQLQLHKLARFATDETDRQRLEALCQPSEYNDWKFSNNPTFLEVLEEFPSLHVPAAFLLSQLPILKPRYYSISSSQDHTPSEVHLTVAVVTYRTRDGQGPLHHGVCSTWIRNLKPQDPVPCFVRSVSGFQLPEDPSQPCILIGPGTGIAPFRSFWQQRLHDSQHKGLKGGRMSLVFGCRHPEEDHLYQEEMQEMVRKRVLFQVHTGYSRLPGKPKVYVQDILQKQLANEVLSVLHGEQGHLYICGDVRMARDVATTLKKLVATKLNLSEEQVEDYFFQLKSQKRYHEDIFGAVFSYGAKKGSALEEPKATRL
As to the kind of experiment: Inhibition of mouse recombinant iNOS expressed in Escherichia coli assessed as nitric oxide production by hemoglobin capture assay.

Turning to `N=C(NCCC[C@H](N)C(=O)N[C@@H]1CCNC1)N[N+](=O)[O-]`, the figures for the Ratio Ki in assay [1] and in assay [2] were 250 and 309, respectively.
As to `C[C@H](NC(=O)[C@H](CC(N)=O)NC(=O)[C@@H](N)CC(N)=O)C(=O)O` (H-Asn-Asn-Ala-OH), the Ratio Ki in assay [1] is 7; in assay [2] it was 1.2. The inhibition constant Ki in assay [3] was found to be 0.72 µM; in assay [4] it was 0.61 µM; in assay [5], 4.28 µM.
In the case of `CN[C@@H](CCCNC(N)=N[N+](=O)[O-])C(=O)N[C@@H]1CCNC1`, the Ki in assay [3] worked out at 160 µM; in assay [4], 1.08 µM; in assay [5], 124 µM.
As for `N=C(NCCC[C@H](N)C(=O)NC1CCNCC1)N[N+](=O)[O-]`, the values for the Ratio Ki in assay [1] and in assay [2] were 430 and 557, respectively. Further, the figures for the Ki in assay [3], in assay [4] and in assay [5] were 262 µM, 0.47 µM and 202 µM, respectively.
Regarding `CN[C@@H](CCCNC(=N)N[N+](=O)[O-])C(=O)NC1CCNCC1`, the Ratio Ki came to 216 in assay [1] and 48 in assay [2].
On to `CN[C@@H](CCCNC(=N)N[N+](=O)[O-])C(=O)N[C@H]1CN[C@H](C(N)=O)C1`, for which the Ratio Ki was determined as 60 in assay [1] and 266 in assay [2]. The Ki in assay [3] turned out to be 290 µM; in assay [4], 1.09 µM; in assay [5], 65 µM.
Take `NC(=N[N+](=O)[O-])NCCC[C@H](N)C(=O)N[C@@H]1CCNC1`: the inhibitory constant (Ki) in assay [3] turned out to be 68 µM; in assay [4], 0.22 µM; in assay [5] it was 55 µM.
Turning to `NC(=N[N+](=O)[O-])NCCC[C@H](N)C(=O)N[C@H]1CCNC1`, the Ki in assay [3] was found to be 77 µM; in assay [4] it was 1.76 µM; in assay [5], 57 µM.
On to `N=C(NCCC[C@H](N)C(=O)N[C@@H]1CCCNC1)N[N+](=O)[O-]`, for which the Ratio Ki worked out at 188 in assay [1] and 469 in assay [2].
Take `CN[C@@H](CCCNC(=N)N[N+](=O)[O-])C(=O)N[C@@H]1CCNC1`: the values for the Ratio Ki in assay [1] and in assay [2] were 115 and 148, respectively.
For the molecule `N=C(NCCC[C@H](N)C(=O)N[C@H]1CCCNC1)N[N+](=O)[O-]`, the Ratio Ki in assay [1] amounted to 70; in assay [2] it was 29. For the same molecule, the Ki in assay [3] was 221 µM; in assay [4] it was 7.62 µM; in assay [5] it was 535 µM.
Consider `CN[C@@H](CCCNC(N)=N[N+](=O)[O-])C(=O)N[C@@H]1CCCNC1`, for which the Ki is 174 µM in assay [3], 2.26 µM in assay [4] and 242 µM in assay [5].
In the case of `CN[C@@H](CCCNC(=N)N[N+](=O)[O-])C(=O)N[C@@H]1CCCNC1`, the Ratio Ki stood at 107 in assay [1] and 77 in assay [2].
As for `NC(=O)[C@@H]1C[C@@H](NC(=O)[C@@H](N)CCC/N=C(\N)N[N+](=O)[O-])CN1`, the Ki in assay [4] amounted to 0.33 µM; in assay [5], 17 µM.
Take `N=C(NCCC[C@H](N)C(=O)N[C@H]1CCNC1)N[N+](=O)[O-]`: the Ratio Ki is 32 in assay [1] and 44 in assay [2].
As for `CN[C@@H](CCCNC(N)=N[N+](=O)[O-])C(=O)NC1CCNCC1`, the inhibition constant Ki in assay [3] worked out at 114 µM; in assay [4] it was 2.38 µM; in assay [5], 515 µM.
On to `NC(=N[N+](=O)[O-])NCCC[C@H](N)C(=O)N[C@@H]1CCCNC1`, for which the inhibition constant Ki in assay [3] turned out to be 225 µM; in assay [4], 0.48 µM; in assay [5], 90 µM.

In general, Ki refers to a dissociation constant, usually derived from enzyme kinetics or from competition with a known ligand.
